One experiment deals with THP1 cells. As to the kind of experiment: Differential gene expression analysis by RNA-seq in high glucose treated THP1 cells. The class given is cell-based, human. The following applies: THP1, HG 25 mM 72 hr with vs without C1 5 uM. The method, then: FIG. 17. Hierarchical Clustering using differential expressed genes. Differential expression was calculated using these counts with edgeR (5, 6) version 3.0. After correcting for differences in library sizes, a fold change of >1.5 and a p-value of <0.05 were applied to select expressed genes. The corrected measures of the latter were further processed using Cluster3.0 (7) to generate a heatmap using Java TreeView. C=HG treated THP-1 cells (A, B are replicates); T=HG+C1 5 uM (C, D are replicates). […]
RNA-seq: Sequence alignment and gene counts. RNA-Seq reads were trimmed to remove sequencing adapters using Trimmomatic (Bolger et al., 2014), and polyA tails using FASTP (Chen et al., 2018). The processed reads were mapped to the human genome (hg19) using STAR software (v. 020201) (Dobin et al., 2013). […]
Differential gene expression analyses by RNA-seq. […] Differential expression analysis was conducted by adjusting read counts to normalized expression values using the TMM normalization method in edgeR package (Robinson et al., 2010). […] Next, Raw counts for each gene in the GENCODE coding gene annotation (hg19) were measured using HTseq (Anders and Huber, 2010) with an argument of “-r pos -s reserve”. Differential expression was calculated using these counts with edgeR (5, 6) version 3.0. […]

The test system of a further experiment is TNF-α mRNA. Put plainly: TNF-α mRNA expression (RT-PCR) in THP1 cells under high glucose. The class given is cell-based, human. The method, then:
FIG. 8. […] High glucose induced TNF expression in THP1 cells. This HG induced TNF increase is alleviated by C1 in dose manner (1.25, 2.5 and 5 uM). Results shown are means±SE of triplet real-time PCRs. *:P=0.002 vs. HG only, by t tests; **:P=0.001 vs. HG only, by t tests.
FIGS. 9A-9B. FIG. 9A. […] THP1 cells were cultured in 25 mM glucose with the indicated concentrations of C1 for 72 h. Cell were collected for total RNA preparation. RT-PCR were performed and data shown are the mean+SEM from triplicates. Statistical analysis was performed using one-way ANOVA, *<0.0001. FIG. 9B. […] THP1 cells were cultured in 25 mM glucose and C1 (uM) as indicated for 72 hours and collected for total RNA preparation. RT-PCR was performed. Data shown are the mean+SEM from triplicates. Statistical analysis was performed using one-way ANOVA: *<0.02; **<0.0001.
RNA extraction and quantitative RT-PCR. RNA was extracted using the Direct-zol™ RNA MiniPrep Plus (Zymo Research). […] Diluted cDNA was quantified using real-time PCR performed with Power SYBR Green qPCR MasterMix (Applied Biosystem) and 7500 real-time PCR system (Applied Biosystems). […]
RNA extraction and quantitative RT-PCR. […] Diluted cDNA was quantified using real-time PCR performed with Power SYBR Green qPCR MasterMix (Applied Biosystem) and 7500 real-time PCR system (Applied Biosystems). […]

Entries after “also recorded” stand apart in the source; their conditions may differ.

Turning to `CC(C)C(C(=O)O)N1C(=O)c2ccncc2C1=O` (stereo not drawn) [Compound C1, 2-(1,3-dioxo-1,3-dihydro-2H-pyrrolo[3,4-c]pyridin-2-yl)-3-methylbutanoic acid], the “TXNIP and TNF-α expression by RNA-seq” value in the experiment with THP1 cells was “suppressed TXNIP and TNF-α”. The “TNF-α mRNA expression” value with TNF-α mRNA (THP1, 25 mM glucose, concentration range of C1, 72 h (FIG. 9B)) is listed as “inhibits TNF-α mRNA expression; also recorded: lower levels of TNF-α mRNA”. Further, the “HG-induced TNF expression” value in the experiment with TNF-α mRNA (THP1, high glucose, C1 1.25, 2.5 and 5 uM (FIG. 8)) was “attenuate high glucose induced expression of inflammatory cytokine molecules”.
